Data: PubChem BioAssay AID256 (DTP/NCI, 2004)
Several values for one entry are separate records, joined by “and”; a condition that tells them apart may be missing. Equal entries are not always repeated. Toxic doses and inconclusive results are not listed.

Test system: CD2F1 mice, L1210 leukemia ip, survival T/C
Assay: NCI In Vivo Anticancer Drug Screen. Data for tumor model L1210 Leukemia (intraperitoneal) in CD2F1 (CDF1) mice
Conditions: higher = longer survival
Method in brief: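 Ratio T/C, where T is the treated-group value and C the vehicle-dosed control value, from mice implanted with a transplantable tumor.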

[1] = endpoint: mean survival time, dose: 25.0 mg/kg/injection, schedule: Q04DX002 (ip), vehicle: saline with Tween-80
[2] = endpoint: mean survival time, dose: 50.0 mg/kg/injection, schedule: Q04DX002 (ip), vehicle: saline with Tween-80
[3] = endpoint: mean survival time, dose: 50.0 mg/kg/injection, schedule: Q01DX009 (ip), vehicle: saline
[4] = endpoint: mean survival time, dose: 100.0 mg/kg/injection, schedule: Q01DX009 (ip), vehicle: saline

`O=C1NC2(CCCC2)C(=O)N2CCCC12` (stereo not drawn) was tested, and the T/C (endpoint: mean survival time, dose: 50.0 mg/kg/injection, schedule: Q04DX003 (ip), vehicle: Klucel (hydroxypropylcellulose) (HPC)) was 93 % of control, the T/C (endpoint: mean survival time, dose: 100.0 mg/kg/injection, schedule: Q04DX003 (ip), vehicle: Klucel (hydroxypropylcellulose) (HPC)) was 93 % of control and the T/C (endpoint: mean survival time, dose: 200.0 mg/kg/injection, schedule: Q04DX003 (ip), vehicle: Klucel (hydroxypropylcellulose) (HPC)) was 97 % of control.
With `Nc1ccc(-n2nc3ccc4ccccc4c3n2)cc1` the T/C [1] was 98 % of control, the T/C [2] was 98 % of control and the T/C (endpoint: mean survival time, dose: 100.0 mg/kg/injection, schedule: Q04DX002 (ip), vehicle: saline with Tween-80) was 103 % of control.
For `O=C(NC(C(=O)NC(C(=O)O)C1CC(Cl)=NO1)C1CC(Cl)=NO1)OCC1c2ccccc2-c2ccccc21` (stereo not drawn), the T/C (endpoint: mean survival time, dose: 1.6 mg/kg/injection, schedule: Q01DX009 (ip), vehicle: saline) was 122 % of control, the T/C (endpoint: mean survival time, dose: 3.1 mg/kg/injection, schedule: Q01DX009 (ip), vehicle: saline) was 116 % of control and the T/C (endpoint: mean survival time, dose: 25.0 mg/kg/injection, schedule: Q01DX009 (ip), vehicle: saline) was 87 % of control.
In the case of `c1ccc2snnc2c1`, the T/C (endpoint: mean survival time, dose: 100.0 mg/kg/injection, schedule: Q01DX001 (ip), vehicle: other) is reported as 97 % of control, the T/C (endpoint: mean survival time, dose: 200.0 mg/kg/injection, schedule: Q01DX001 (ip), vehicle: other) is reported as 103 % of control and the T/C (endpoint: mean survival time, dose: 400.0 mg/kg/injection, schedule: Q01DX001 (ip), vehicle: other) is reported as 88 % of control.
For `Oc1ccccc1/C=N\N=C\c1ccccc1O`, the T/C (endpoint: mean survival time, dose: 100.0 mg/kg/injection, schedule: Q01DX001 (ip), vehicle: saline with Tween-80) was 97 % of control, the T/C (endpoint: mean survival time, dose: 200.0 mg/kg/injection, schedule: Q01DX001 (ip), vehicle: saline with Tween-80) was 106 % of control and the T/C (endpoint: mean survival time, dose: 400.0 mg/kg/injection, schedule: Q01DX001 (ip), vehicle: saline with Tween-80) was 100 % of control.
For `O=NNc1ccc2cccnc2n1`, the T/C (endpoint: median survival time, dose: 12.5 mg/kg/injection, schedule: Q01DX005 (ip), vehicle: water) was 153 % of control, the T/C (endpoint: median survival time, dose: 25.0 mg/kg/injection, schedule: Q01DX005 (ip), vehicle: water) was 162 % of control and the T/C (endpoint: median survival time, dose: 50.0 mg/kg/injection, schedule: Q01DX005 (ip), vehicle: water) was 164 % of control. The T/C (endpoint: median survival time, dose: 60.0 mg/kg/injection, schedule: Q01DX005 (ip), vehicle: water) was 223 % of control, the T/C (endpoint: median survival time, dose: 100.0 mg/kg/injection, schedule: Q01DX005 (ip), vehicle: water) was 175 % of control and 181 % of control and the T/C (endpoint: median survival time, dose: 166.66 mg/kg/injection, schedule: Q01DX005 (ip), vehicle: water) was 105 % of control.
For `O=C(OC(c1ccccc1)c1ccccc1)C(CSC(c1ccccc1)(c1ccccc1)c1ccccc1)NC(c1ccccc1)(c1ccccc1)c1ccccc1` (stereo not drawn), the T/C [3] was 96 % of control, the T/C [4] was 101 % of control and the T/C (endpoint: mean survival time, dose: 200.0 mg/kg/injection, schedule: Q01DX009 (ip), vehicle: saline) was 102 % of control. For the same compound, the T/C (endpoint: mean survival time, dose: 400.0 mg/kg/injection, schedule: Q01DX009 (ip), vehicle: saline) was 98 % of control.
With `O=C(O)CS(=O)(=O)c1ccccc1` the T/C [3] was 86 % of control and the T/C [4] was 89 % of control.
`CNC(=O)OC[C@H]1C2=C(C(=O)C(C)=C(N)C2=O)N2C[C@H]3N[C@H]3[C@@]12OC` was tested, and the T/C (endpoint: mean survival time, dose: 13.75 mg/kg/injection, schedule: Q01DX001 (ip), vehicle: carboxymethylcellulose (CMC)) was 113 % of control.
In the case of `C(#CCNC1CCCCC1)CNC1CCCCC1`, the T/C [1] is reported as 94 % of control and the T/C [2] is reported as 98 % of control.
`CCN(CC)CCCOC(=O)c1ccc(N)cc1` was tested, and the T/C (endpoint: mean survival time, dose: 12.5 mg/kg/injection, schedule: Q04DX003 (ip), vehicle: saline) was 107 % of control, the T/C (endpoint: mean survival time, dose: 25.0 mg/kg/injection, schedule: Q04DX003 (ip), vehicle: saline) was 105 % of control and the T/C (endpoint: mean survival time, dose: 50.0 mg/kg/injection, schedule: Q04DX003 (ip), vehicle: saline) was 101 % of control.
`COC(=O)C1CC[N-]CC1.COC(=O)C1CC[N-]CC1.[Cl][Pt+2][Cl]` was tested, and the T/C (endpoint: mean survival time, dose: 100.0 mg/kg/injection, schedule: Q01DX009 (ip), vehicle: saline with Tween-80) was 115 % of control and the T/C (endpoint: mean survival time, dose: 200.0 mg/kg/injection, schedule: Q01DX009 (ip), vehicle: saline with Tween-80) was 114 % of control.
With `O=[N+]([O-])O.[NH-]C1CCCCC1[NH-].[NH-]C1CCCCC1[NH-].[OH-].[OH-].[Pt+4].[Pt+4]` (stereo not drawn) the T/C (endpoint: mean survival time, dose: 1.25 mg/kg/injection, schedule: Q04DX003 (ip), vehicle: water) was 110 % of control.
For `CCCCCCC(O)C/C=C\CCCCCCCC(=O)O` (stereo not drawn), the T/C (endpoint: mean survival time, dose: 50.0 mg/kg/injection, schedule: Q04DX002 (ip), vehicle: saline) was 86 % of control and the T/C (endpoint: mean survival time, dose: 100.0 mg/kg/injection, schedule: Q04DX002 (ip), vehicle: saline) was 90 % of control.
